Measurements reported in US20130197043A1, “USE OF THE FETAL REPROGRAMMING OF A PPAR AGONIST” (SNU R&DB FOUNDATION, priority 2010, published 2013).

Key:
[1] = system: slow muscle fibers in the gastrocnemius muscle; test: Muscle fiber type analysis (muscle colour, metachromatic staining, slow type MHC immunostaining); assay type: in vivo, mice
Source text: The slow muscle fiber has a lot of myoglobin, which is oxygen transfer protein, and thus appears redder than the fast muscle. When the skin of the fetus was removed and the muscle thereof was observed, it may be seen that administered mice group had redder muscle (FIGS. 7A and 7B). In order to confirm whether or not slow muscle fiber generation was increased due to the administration material (CMDD1111), hind legs thereof were resected and then frozen in OCT. Frozen muscle tissues were cut into […] sections by using a freezing cryotome, and mounted on slides, which was then subjected to metachromatic staining. The slow muscle fiber was stained darker blue than the fast muscle by the metachromatic staining. […] Muscle fibers may be discernable even by immunostaining using an isoform antibody of the myosin heavy chain (MHC). The present inventors conducted immunostaining using the slow type MHC in order to confirm whether or not slow muscle fibers were increased by the administration material (CMDD1111).

[2] = system: gene expression in muscle; test: Gene expression analysis using real-time PCR in fetal-reprogrammed mice; assay type: in vivo
Method: A gene expression analysis experiment using the real-time PCR was conducted to further verify Miroarray analysis results. As for mouse group subjected to fetal reprogramming by administration of PPAR δ agonist (CMDD1111) during a muscular development period, there were increases in expression of core regulators for fatty acid oxidation and thermogenesis, such as carnitine palmitoyl transferase 1a (CPT-1a: 1.5 fold), uncoupling protein 3 (UCP3: 4.2 fold), acyl Co-A synthetase (ACSL: 1.4 fold), acyl Co-A dehydrogenase (ACAD10: 2.0 fold), and NDUFA12 (1.3 fold). In addition, there was a remarkable increase in expression of Adiponectin (ADIPOQ: 2.5 fold), which are commonly expressed in the slow muscle fiber and has been known to increase fatty acid oxidation to improve diabetes (FIG. 9).

[3] = Maternal treatment: side effects, fetal body weight, growth, skeleton staining; assay type: in vivo, mice
Method: The present inventors used a method of administering a PPAR δ agonist to a pregnant mother (maternal treatment) in order to investigate the role of fetal reprogramming of PPAR δ during mammalian development. For the fetal reprogramming, the PPAR δ agonist was orally administered to pregnant mice at a concentration of 10 mg/kg every day, and a specific experiment method was summarized in FIG. 1.
Fertile female mice and male mice were bred, and then pregnancy or not was checked by plug confirmation. CMDD1111 was orally administered to pregnant female mice at a concentration of 10 mg/kg once per day every day for six weeks (gestation and lactation periods). Side effects due to the administered material were not observed during the gestation period. The weight of a fetus group administered with vehicle during the gestation period was 1.33±0.11 g, and the weight of a fetus group administered with CMDD1111 was 1.37±0.09 g. The weight difference between the two groups was not shown (FIG. 3). In addition, growth inhibition or promotion due to the administered material was not observed in the comparison results of growth rate of fetus for 3 weeks (FIG. 4). There was no difference in body weight between the two groups as adults (FIG. 5). Deformity due to the administered material was not observed in the skeleton staining results using Alizaren red S and Alician blue dye (FIG. 6).

[4] = system: mice subjected to fetal reprogramming; test: Body weight gain on high-fat feedstuff of fetal-reprogrammed mice; assay type: in vivo; settings: 13-week old mice, 35% fat feedstuff, 84 days
Source text: Lipometabolism has deep correlation with the occurrence of obesity and diabetes. Therefore, the present inventors checked the fetal reprogramming effect of PPAR δ on the occurrence of metabolic syndrome. The control group and administration group of 13-week old mice were fed with high-fat feedstuff (fat content: 35%) over a total of 84 days while being weighed once per week. As a result, it may be seen that, the body weight gain was suppressed by 8% in the mice subjected to fetal reprogramming by PPAR δ agonist compound (CMDD1111) as compared with the control group, as shown in FIG. 18.

[5] = system: leptin receptor-deficient mouse (db/db); test: Glucose tolerance test in type II diabetes mouse model after fetal reprogramming; assay type: in vivo; settings: homo type male db/db fetuses; mother dosed only during lactation
Method: The present researchers have checked the fetal reprogramming effect of PPAR δ by using a leptin receptor-deficient mouse (db/db). After hetero type female and male mice were bred, the PPAR δ agonist (CMDD1111) was administered to the female mice only during the lactation period. The glucose tolerance test (GTT) was conducted using only homo type male fetuses having induced diabetes through gene analysis and blood glucose analysis.

PPAR δ-deficient cells = test: Primary cell culture and real-time PCR gene expression analysis, PPAR δ-deficient cells; assay type: cell-based, mouse; settings: 300 nM
Method: However, it has not been reported that the PPARs response element (PPRE) is present at promoters of these three genes. Therefore, the present inventors resected the muscle of the mouse with the removal of PPAR δ gene and conducted primary culture, in order to verify whether or not the increases in expressions of the above three genes are PPAR δ-dependent. After hind legs of a five-day-old fetus was resected, primary culture was conducted by the same method as developed by Rando (Rando et al, J. Cell. Biol., 1994, 125, 1275-1287). Myoblast, after being cultured, was transferred to a 6-well plate, and then differentiated into myotube while being treated with 300 nM of PPAR δ agonist (CMDD1111). The differentiated myotube was further treated with 300 nM of PPAR δ agonist (CMDD1111) for 2 days, and then total RNA was extracted by using a TRIzol reagent (Gibco). The extracted RNA was subjected to reverse transcription, to synthesize cDNA, which was then used as a template for real-time PCR analysis.
As the result of real-time PCR analysis, expressions of PDK4 and CPT-1, known to be directly regulated by PPAR δ, were increased by 2.2 fold and 1.5 fold, respectively. However, there was no change in PPAR δ-deficient cells. This means that expressions of PDK4 and CPT-1 are PPAR δ-dependently regulated. […]

[6] = fetal-reprogrammed mouse muscle

Cc1cc(SC(Cc2ccccc2)c2sc(-c3ccc(C(F)(F)F)cc3)nc2C)ccc1OCC(=O)O (stereo not shown) [CMDD1111]
muscle colour after skin removal ([1]; fetal reprogramming, maternal 10 mg/kg): redder muscle | muscle fibers responsive to slow type MHC, immunostaining ([1]; gastrocnemius muscle): increased | slow (dark blue) muscle fibers, metachromatic staining ([1]; gastrocnemius muscle): increasingly generated | expression of Adiponectin (ADIPOQ) [2, 6]: 2.5 fold | expression of CaMKII B [2, 6]: 4.5 fold | expression of CaMKII D [2, 6]: 3.2 fold | expression of HDAC4, decreased by [2, 6]: 0.6 fold | expression of NDUFA12 [2, 6]: 1.3 fold | expression of PGC-1α [2, 6]: 1.6 fold | expression of acyl Co-A dehydrogenase (ACAD10) [2, 6]: 2.0 fold | expression of acyl Co-A synthetase (ACSL) [2, 6]: 1.4 fold | expression of carnitine palmitoyl transferase 1a (CPT-1a) [2, 6]: 1.5 fold | expression of uncoupling protein 3 (UCP3) [2, 6]: 4.2 fold | expression of ATP2A2 ([2]; versus control group): 2.2 fold | expression of MYH6 ([2]; versus control group): 6.8 fold | expression of My17 ([2]; versus control group): 4.8 fold | expression of RYR2 ([2]; versus control group): 2.2 fold | expression of RYR3 ([2]; versus control group): 3.6 fold | expression of TNNI3 ([2]; versus control group): 5.8 fold | expression of phospholamban ([2]; versus control group): 3.2 fold | growth inhibition or promotion (growth rate of fetus) ([3]; 3 weeks): not observed | deformity in skeleton staining ([3]; Alizaren red S and Alician blue dye): not observed | body weight versus vehicle group ([3]; as adults): no difference | side effects due to the administered material ([3]; gestation period, 10 mg/kg oral once per day): not observed | weight of fetus group ([3]; immediately after birth, mother 10 mg/kg during gestation): 1.37 ± 0.09 g | body weight gain suppression versus control [4]: 8% | glucose tolerance (GTT) [5]: improved | expressions of PDK4 and CPT-1 (PPAR δ-deficient cells): no change
